Measured values taken from patent US7732160B2, “Methamphetamine derivatives and conjugates for immunoassay” (Roche Diagnostics Operations, Inc., priority 2004, dated 2010).

What was measured:
[1] = system: monoclonal antibody NEAMP 48.2; experiment: Microparticle agglutination immunoassay with conjugate (12) and N-ethylamphetamine antibody-coated particles, percent cross-reactivity; assay type: binding; settings: NEAMP 48.2 antibody with conjugate (12)
Experimental: The conjugate reagent was prepared as described in Example 16.
An antibody-coated microparticle was prepared as described in Example 16 using monoclonal antibody NEAMP 48.2 described in U.S. 2004/0077021. A microparticle reagent was then prepared as described in Example 16.
The assay was carried out on a Roche/Hitachi 917 analyzer as described in Example 16.
Percent cross-reactivity was determined in an ammunoassay. A standard curve was established using known amounts of the target analyte methylenedioxyethylamphetamine (MDEA). Known amounts of various amphetamine-related drugs were to be analyzed as samples in the immunoassay, and apparent concentrations of these drugs were generated from the standard curve. Apparent concentration of the drug, divided by actual concentration and multiplied by 100, is the percent cross-reactivity of this drug.

[2] = system: monoclonal antibody specific for methamphetamine; experiment: Microparticle agglutination immunoassay with conjugate (12) and methamphetamine antibody-coated particles, percent cross-reactivity; assay type: binding; settings: methamphetamine antibody with conjugate (12)

Structure (SMILES) | Cross-reactivity [1] | Cross-reactivity [2]
CN[C@@H](C)[C@H](O)c1ccccc1 [l-ephedrine] | essentially none | –
CC(C)(N)Cc1ccccc1 [Phentermine] | essentially none | –
CCNC(C)Cc1ccc2c(c1)OCO2 (centres unmarked) [MDEA, 3,4-methylenedioxy-N-ethylamphetamine] | good cross-reactivity | –
NCCc1ccc(O)cc1 [Tyramine] | essentially none | –
CCC(Cc1ccc2c(c1)OCO2)NC (centres unmarked) [MBDB, 3,4-methylenedioxyphenyl-N-methylbutanamine] | – | good cross-reactivity
CN[C@@H](C)Cc1ccccc1 [d-Methamphetamine] | – | good cross-reactivity
CNC(C)Cc1ccc2c(c1)OCO2 (centres unmarked) [MDMA, 3,4-methylenedioxy-N-methylamphetamine] | – | good cross-reactivity
CN[C@@H](C)[C@@H](O)c1ccccc1 [d-pseudoephedrine] | essentially none | –
